Experimental data: a melting point compilation (Tetko et al.; mined from patent text by program, amines drawn as free bases though some values may be those of a salt)

Work on O=C(O)COc1cc(Cl)ccc1C(=O)NCc1cc(F)cc(C(F)(F)F)c1 yielded a melting point of 160 to 162 °C.
CC1Oc2ccccc2-n2cnc(-c3noc(C4CC4)n3)c21 (stereo not given) showed a melting point of 162 °C.
With CC(=O)N(CC(=O)O)C[C@H]1O[C@H](c2ccccc2Cl)c2cc(Cl)ccc2N(Cc2ccccc2)C1=O (relative stereo) the melting point was 143 to 145 °C.
Cc1c(-c2ccccc2)oc(C(=O)O)cc1=O gave a melting point of 218 °C.
In the case of Cc1ccc(Cc2cnc(NCCCNc3ncc(Br)cc3C)[nH]c2=O)cn1, the melting point is reported as 48 to 51 °C.
CN(C)CCC1CCC2(CC1)Nc1cc(Cl)c(S(N)(=O)=O)cc1S(=O)(=O)N2 (stereo not given) gave a melting point of 238 to 239 °C.
CN(C)C1N(C)C(=O)NC(=O)N1c1cc(OCc2ccccc2)c(Cl)cc1F (stereo not given) showed a melting point of 193 to 194 °C.
Work on N=C(N)Nc1nc(CCCCNc2c(NCCCCc3csc(NC(=N)N)n3)c(=O)c2=O)cs1 yielded a melting point of 228 to 229 °C.
COC(=O)[C@H](Cc1ccc(NC(=O)c2c(Cl)cccc2Cl)cc1)NC(=O)OC(C)(C)C gave a melting point of 148 to 151 °C.
For COc1ccc2oc(-c3csc(C)n3)cc2c1, the melting point was 136 to 137 °C.
In the case of Cc1nn(C)c2ccc(C(=O)O)c(C3=NC(C)(C(C)C)C(=O)N3)c12 (stereo not given), the melting point is reported as 156 to 166 °C.
For Nc1ccc(C(=O)O)cc1NCc1ccccc1Cl, the melting point was 176 to 177 °C.
With CC(O)C(Cc1cc(C(C)(C)C)c(O)c(C(C)(C)C)c1)C(C)O (stereo not given) the melting point was 102 to 105 °C.
Work on COc1ccc(C2CCc3cc(OC)ccc3C2CCO)cc1 (stereo not given) yielded a melting point of 95 °C.
Compound CC(=N)Nc1ccccc1N1CCOCC1 has a melting point of 140 to 141 °C.
CCC(N)=C(C(C)=O)c1[nH]c2ccccc2c1C(O)CN(C)C (stereo not given) showed a melting point of 90 to 104 °C.
Compound O=C1c2ccccc2-c2c1c1ccccc1c(=O)n2CCCNS(=O)(=O)c1ccc(Br)cc1 has a melting point of 241 to 243 °C.
With CC(CBr)=C(C(=O)OCc1ccccc1)N1C(=O)C(Br)(Br)C1Br (stereo not given) the melting point was 84 to 85 °C.
Compound CC1=C(CC2=NCCN2C)CCc2ccccc21 has a melting point of 162 to 164 °C.
COC(=O)CCC(=O)OCc1cc(CCCCCOc2c(Cl)cc(C3=NCCO3)cc2Cl)on1 showed a melting point of 39 to 41 °C.
COC(=O)C1Oc2ccc(C)cc2C(C)(c2ccccc2)O1 (stereo not given) showed a melting point of 100 °C.
Compound O=C1c2ccccc2C(=O)N1Cc1cc([N+](=O)[O-])cc([N+](=O)[O-])c1 has a melting point of 171 °C.
Compound COc1ccc(-n2nc(Cl)cc2-c2ccc(OCCO)cc2)cn1 has a melting point of 136 to 138 °C.
CS(=O)(=O)Nc1ccc(CCOS(C)(=O)=O)cc1 gave a melting point of 134 to 136 °C.
C=C(CN(Cc1ccccc1)Cc1ccccc1)C(=O)OC(C)(C)C showed a melting point of 62 to 63 °C.
ON=Cc1cc(F)ccc1Cl showed a melting point of 133 to 134 °C.
CC(C)(C)[Si](C)(C)N1C(=O)CC1CC(=O)CC(=O)OCc1ccc([N+](=O)[O-])cc1 (stereo not given) showed a melting point of 65 to 66.5 °C.
NC(=O)C1CCN(c2ncncc2Br)CC1 showed a melting point of 188 to 190 °C.
Compound O=Cc1cc2cc3c(cc2nc1I)OCCO3 has a melting point of 155 to 157 °C.
For CC12CCC(=O)C=C1CCC1C2CCC2(C)C1CCC2(OC=O)C(=O)CCl (stereo not given), the melting point was 202 °C.
Compound CN(C(=O)COc1cc(C(F)(F)C(F)(F)F)no1)c1ccccc1 has a melting point of 88 to 89 °C.
In the case of CC(=O)c1cc(F)ccc1Oc1nc2ccc(-n3cc(-c4ccccc4)nn3)cc2cc1Cc1ccccc1, the melting point is reported as 183 °C.
O=C(C=C(c1cc(Cl)cc(Cl)c1)C(F)(F)F)c1ccc(C(=O)Nc2ncc(Cl)cn2)cc1 gave a melting point of 71 to 76 °C.
In the case of COc1ccc([C@@H]2CCCC[C@@H]2[N+](=O)[O-])cc1OC (racemic), the melting point is reported as 84 to 86.5 °C.
CCOC(=O)c1ccc(N2CCN(Cc3c[nH]c4ncccc34)CC2)cc1 gave a melting point of 196 to 197 °C.
Work on CC1=CC(N)=NC(c2ccccc2C(F)(F)F)N1c1n[nH]c2ccccc12 (stereo not given) yielded a melting point of 235 to 237 °C.
Compound COC(=O)c1cc(-c2ccc(OCc3ccccc3)cc2)c(=O)n2ccc3ccsc3c12 has a melting point of 169 to 171 °C.
Work on O=c1[nH]c2ncc(-c3ccc(-n4cccn4)cc3)nc2n1CC1CCOCC1 yielded a melting point of 294 to 296 °C.
In the case of Cc1c(-c2ccccc2)oc2c(C(O)CCCO)cccc2c1=O (stereo not given), the melting point is reported as 133 to 134 °C.
N#CCC(=O)NCc1ccc(Cl)c(Cl)c1 gave a melting point of 144 to 145 °C.
Compound Cc1ccnc2c1nc(-c1cccnc1N)n2-c1ccc(CC(=O)Nc2ccccc2)cc1 has a melting point of 236 to 238 °C.
O=C(Nc1ccccc1O)C(F)(F)C(O)(Cn1cncn1)c1ccc(F)cc1F (stereo not given) showed a melting point of 121 to 126 °C.
CC(C)(C)OC(=O)c1ccc(NC#N)cc1 showed a melting point of 94 to 95 °C.
For O=C(c1ccc([N+](=O)[O-])cc1)N1Cc2ccccc2C(c2ccccc2Cl)c2ccccc21 (stereo not given), the melting point was 178 to 181 °C.
Work on NCC(=NNc1ccccc1)c1ccccc1 yielded a melting point of 106 to 108 °C.
O=C(NCCCn1cncn1)c1ccco1 gave a melting point of 63 to 66 °C.
For COc1ccc2c(c1)CCC1C2CCC2(C)C1CCC2N(C=O)CCC(C)C (stereo not given), the melting point was 106 to 107 °C.
For COCc1cc(N(C)C)ncn1, the melting point was 42 to 44 °C.
In the case of CCOC(=O)N1CC[C@@H]2CC(=O)c3cc([N+](=O)[O-])ccc3C[C@H]2C1 (relative stereo), the melting point is reported as 112 to 114 °C.
Cc1ccc(-c2nc(Cc3cc4cc(CO)ccc4o3)c(C)o2)cc1 showed a melting point of 156 to 160 °C.
Work on CC(C)(C)OC(=O)N1CCc2c(n(CCO)c3cc(Cl)cc(Cl)c23)CC1 yielded a melting point of 166 to 167 °C.
For CCCCOc1ccc(S(=O)(=O)C2(C(=O)O)CCN(CC)CC2)cc1, the melting point was 162 °C.
COc1cc2c(c(OC)c1OC)-c1ccc(O)cc1[C@@H](NC(C)=O)CC2 gave a melting point of 157 °C.
Compound O=C1CCC(=NNc2ccc(F)cc2)c2ncccc2N1 has a melting point of 232 to 233 °C.
For O=C(CCCCCl)Nc1nc2ccccc2[nH]1, the melting point was 161 to 163 °C.
Work on O=C(O)Cc1ccc(NC(=O)C(Cc2ccccc2)NS(=O)(=O)c2ccc(Cl)cc2)cc1 (racemic) yielded a melting point of 204 to 206 °C.
With COc1ccc(Cn2cnc3c(-c4ccco4)ncnc32)cc1C the melting point was 169 to 170 °C.
In the case of CCCn1nc2c(N)nc3c(c2c1CCCCO)CCCC3, the melting point is reported as 194 to 200 °C.
Compound O=C1NCN(c2ccccc2)C12CCN(CCCn1c(=O)[nH]c3cc(Cl)ccc31)CC2 has a melting point of 234 °C.
Compound Cc1ccc(-c2ccc3c(c2)C=C(C(=O)Nc2ccc(CN(C)C4CCSCC4)cc2)CO3)cc1 has a melting point of 169 to 171 °C.
CC(=O)OCC(COC(C)=O)NC(=O)c1cc(NC(=O)CCl)cc(C(=O)NC(COC(C)=O)COC(C)=O)c1 showed a melting point of 135 to 137 °C.
In the case of CC(C)(CF)c1cc(Cl)nnc1Cl, the melting point is reported as 36 to 38 °C.
Compound CCCCCn1ncc2c(N)c3c(nc21)CCNC3=O has a melting point of 161 to 162 °C.
CCC1CCCCN1C(=O)C=Cc1c(-c2ccccc2)nn2ccccc12 (stereo not given) gave a melting point of 121 to 122 °C.
In the case of CC(=O)Nc1nc(/C=C/c2ccc([N+](=O)[O-])cc2)c(-c2ccc(S(C)(=O)=O)cc2)s1, the melting point is reported as 294 to 295 °C.
Work on O=C(OC(c1ccccc1)c1ccccc1)C1=C(Sc2ccccc2)CC2CC(=O)C12 (stereo not given) yielded a melting point of 148 to 150 °C.
Compound COC(=O)C1CCN2C(=O)C(=O)c3cccc1c32 (stereo not given) has a melting point of 135 to 136 °C.
COc1cc(OC2CCN(Cc3cccnc3)CC2)ccc1CC(=O)N1CCN(c2ccccc2C)CC1C(N)=O (stereo not given) gave a melting point of 78 to 81 °C.
Work on CN1CCN(c2ncccc2OC2CCN(c3ccc(C4CCOCC4)cc3)C2=O)CC1 (stereo not given) yielded a melting point of 219 to 248 °C.
For C[C@@H]1Cc2ccsc2[C@H](C)N1CCNC(=O)c1ccccc1N (relative stereo), the melting point was 89 to 94 °C.
With O=C(NCc1ccc(F)cc1)c1ccnc(N2CCN(Cc3ccncc3)C2=O)c1 the melting point was 161 to 163 °C.
In the case of COc1nn(-c2cccc(N3CCCC3=O)c2)c(=O)n(Cc2ccc(Cl)cc2)c1=O, the melting point is reported as 91 to 93 °C.
Cn1cc(C(=O)NCc2ccc(Cl)cc2)c(=O)c2cc(CO)cc(I)c21 showed a melting point of 242 to 244 °C.
Compound Cc1cccc(C)c1CNc1cc(C2=NCCO2)cc2c1nc(C)n2C has a melting point of 235 °C.
With Cc1cc2c(cc1-c1cc(C=CC(=O)O)n(C)c1)C(C)(C)CCC2(C)C the melting point was 185 to 186 °C.
COc1cc(O)c(C(=O)C=Cc2cccnc2)c(OC)c1 gave a melting point of 158 °C.
Compound Cc1ccc(-c2c(NS(=O)(=O)c3ccc(C(C)(C)C)cc3)ncnc2OCCOc2ncc(CCc3ccccc3)cn2)cc1 has a melting point of 158 to 160 °C.
With O=C(Nc1ccc2ccc(Cl)nc2n1)c1ccsc1 the melting point was 254 °C.
With CS(=O)(=O)c1ccc2cc(C(=O)O)ccc2c1 the melting point was 301 to 304 °C.
For O=c1c2cccnc2[nH]c2ccnn12, the melting point was > 300 °C.
For CCOC(=O)C(=O)c1ccc(OCC(=O)c2c(C)cc(C)cc2C)cc1, the melting point was 68.5 to 70 °C.
Work on CS(=O)(=O)c1cccc(NC(=O)c2cnn3c(C(F)(F)F)cc(-c4ccc(Cl)cc4)nc23)c1 yielded a melting point of 305 °C.
For Clc1ccc(-c2nc(COc3ccc(CCCn4ccnc4)cc3)co2)s1, the melting point was 77 to 78 °C.
Compound O=C(NC(O)C(=O)O)OCc1ccccc1 (stereo not given) has a melting point of 194 to 198 °C.
CC(N)C(=O)Nc1cc(OCC(F)(F)F)ccc1-c1ccccn1 (stereo not given) showed a melting point of 85 to 86 °C.
COc1cc(C(=O)O)c(N)cc1OCc1ccccc1 showed a melting point of 159 to 161 °C.
For O=[N+]([O-])c1cnc2cc3c(cc2c1-c1ccccc1Cl)CCC3, the melting point was 175 to 176 °C.
Compound COc1ccc(S(=O)(=O)C(CC=C(C)C)(CC=C(C)C)C(=O)NO)cc1 has a melting point of 93 to 96 °C.
CON=Cc1c(C(=O)OC)[nH]c2c(C)ccc(C)c12 gave a melting point of 107 to 108 °C.
Work on O=C1CCCc2c1c1ccccc1n2Cc1ccccc1 yielded a melting point of 157 to 158 °C.
Work on Cc1nc2c([N+](=O)[O-])cccn2c1C=O yielded a melting point of 188 to 189 °C.
With CS(=O)c1cc(-c2ccc(C(F)(F)F)cc2)ccc1C#N (stereo not given) the melting point was 127 to 128 °C.
CCSCCCCCCCCCCC(=O)O showed a melting point of 58 to 61 °C.
O=C(O)c1ccc2c(c1)Sc1ccc(F)cc1C=C2 gave a melting point of 273 to 275 °C.
CC1(C)CC(c2ncccn2)c2cc(C#N)ccc2O1 (stereo not given) showed a melting point of 109 to 111 °C.
For COC1=C2C(=C(C(C)C)CC1(C)OC)C(=O)N(CSc1nnnn1-c1ccccc1)S2(=O)=O (stereo not given), the melting point was 169 to 171 °C.
Compound Cc1cc(C)cc(NCc2ccc3nc(NCCCN4CC(C)OC(C)C4)n(Cc4nc(C)ccc4O)c3c2)c1 (stereo not given) has a melting point of 192 °C.
O=C(O)c1ccc2ccc(S)cc2c1 showed a melting point of 211 to 216 °C.
CCOC1C=CC(Cl)=CC1(C)S(N)(=O)=O (stereo not given) gave a melting point of 153 to 155 °C.
With FC(F)(F)c1ccc(-c2cc(C(F)(F)F)n3ncc(-c4ccncc4)c3n2)cc1 the melting point was 261 °C.
